Test results published in PMC10254852, “Design, Synthesis and Anticancer Evaluation of Nitroimidazole Radiosensitisers” (Molecules, 2023).
Where two headings read alike, the source gives them in different places.

Legend:
HCT116/54C cells [1] = experiment: In vitro cytotoxicity, 4 h exposure oxic/anoxic, 5-day regrowth, sulforhodamine B; format: cell-based, human; conditions: HCT116/54C; for HCR: IC50(oxic)/IC50(anoxic); for IC50: Homo sapiens
Description: (§1) This allowed derivation of hypoxia cytotoxicity ratios (HCR) as IC50(oxic)/IC50(anoxic) in an HCT116 subclone HCT116/54C and two HNSCC cell lines, FaDu and UT-SCC-74B (Table 2).
(§2) HCT116/54C is an HCT116 subline that originated from a mixed culture with UT-SCC-54C cells, which was supplied alongside UT-SCC-74B by Prof. Bradly Wouters (University Health Network, Toronto, ON, Canada). HCT116/54C and UT-SCC-74B cells were passaged in minimum essential media (MEM, ThermoFisher Scientific, Waltham, MA, USA) with 10% foetal calf serum (FCS, Moregate Biotech, Hamilton, New Zealand), 4.5 mg/mL D-glucose (Sigma-Aldrich, St. Louis, MO, USA) and 20 mM HEPES (Sigma-Aldrich). FaDu cells were sourced from American Type Culture Collection and cultured in αMEM (ThermoFisher Scientific) with 10% FCS. All cell lines were confirmed mycoplasma-free by PlasmoTest (InvivoGen, San Diego, CA, USA) and were derived from STR-authenticated cryopreserved stocks. Log-phase cells were seeded into 96-well plates at 800 cells/well for HCT116/54C and 1500 cells/well for FaDu. […] After drug washout, cells were grown and stained as for the oxic IC50 assays. The hypoxic cytotoxicity ratio HCR was determined as HCR = IC50(oxic)/IC50(anoxic).

UT-SCC-74B cells = experiment: as above; format: cell-based, human; conditions: for IC50: Homo sapiens; for HCR: IC50(oxic)/IC50(anoxic)
Description: as §1, §2

FaDu cells = experiment: as above; format: cell-based; conditions: for IC50: Homo sapiens; for HCR: IC50(oxic)/IC50(anoxic)
Description: as §1, §2

HCT116/54C cells [2] = experiment: In vitro radiosensitisation under anoxia, clonogenic survival; format: cell-based, human; conditions: compound 1 mM, radiation dose for 1% survival/radiation dose for 1% survival with compound, mean ± SEM
Experimental: Next, we evaluated in vitro radiosensitisation by using a representative subset of nitroimidazole compounds in HCT116/54C cells with a clonogenic survival endpoint. Radiosensitisation was determined by treating cells under anoxia with a range of radiation doses alone and with compounds at equimolar doses (1 mM). Sensitiser enhancement ratios (SER) were calculated as the ratio of radiation dose required for 1% clonogenic survival alone or with compound (Table 3).
Cells were seeded onto 96-well plates at 10^5 cells per well and allowed to attach for 2 h. […] The plates were irradiated (Eldorado 78 ^60Co teletherapy unit, ~2 Gy/min) with 15 Gy under anoxia at room temperature for SR experiments. A metal wedge placed on the top of the metal chamber was used to achieve a graduated radiation dose across the plate, varying from 7 to 29 Gy, calibrated by Fricke dosimetry with ammonium thiocyanate as previously described for SER experiments. The control plate (compound alone, no radiation) was left inside the anaerobic chamber at room temperature during the irradiation period. After treatment, the cells were trypsinized and suspended in usual media + 1% penicillin-streptomycin (ThermoFisher Scientific), and 10-fold serial dilutions were plated for clonogenic survival. After 10 days, plates were stained with methylene blue (2 g/L in EtOH/H2O, 1:1 v/v) and colonies with more than 50 cells were counted. The surviving fraction (SF) was determined as: SF = PE(irradiated)/PE(control) where the plating efficiency (PE) = (No. of colonies)/(No. of cells plated). SF was plotted against radiation dose. Survival ratios (SR) were calculated: SR = (cell survival with radiation)/(cell survival with drug + radiation). Sensitizer enhancement ratios (SER) were calculated: SER = (radiation dose for 1% survival without compound)/(radiation dose for 1% survival with compound).

HCT116/54C tumours = experiment: Tumour radiosensitisation: ex vivo clonogenic assay; format: in vivo, NIH-III mice
Experimental: Specific pathogen-free six- to eight-week-old female NIH-III mice, bred in the Vernon Jansen Unit, University of Auckland, were used for animal experiments. Animals had ad libitum access to food and water and were maintained in microisolator cages on a 12 h light/dark cycle. All treatments were administered by i.v. injection at a dose of 2.2 mmol/kg and injection volume of 10 mL/kg. Compounds 2, 34 and 38 were administered as solutions in saline containing 1% DMSO or for 9–12 as solutions in saline containing 2 molar equivalents of NaHCO3. Control animals received an i.v. injection of saline at 10 mL/kg. All animal experiments were conducted under the auspices of the University of Auckland Animal Ethics Committee (approval 1781).
Compounds were evaluated for in vivo radiosensitisation of hypoxic cells in HCT116/54C and UT-SCC-74B human tumour xenografts using clonogenic survival as an endpoint, using previously report methods. Tumours were grown subcutaneously on the flanks of NIH-III mice by injecting 5 × 10^6 HCT116/54C cells or UT-SCC-74B cells. Once tumours reached a volume of approximately 250 mm^3, mice were randomly assigned to 4 treatment groups and treated with: (A) vehicle control, (B) 10 Gy RAD only, (C) sensitiser only, or (D) sensitiser given before 10 Gy RAD. Drugs were administered as a single i.v. dose at 2.2 mmol/kg. […] Tumours were excised 18 h after treatment, and tumour cells were dissociated enzymatically and plated to determine the number of surviving (clonogenic) cells per gram of tumour tissue. SF and SR were calculated as described above. Statistical significance of drug effects was tested using one-way ANOVA with Sidak tests for multiple comparisons vs. radiation alone (Table 5).

[3] = anoxic, 4 h exposure, mean ± SEM, n = 3–4, read-out: IC50 Anoxic
[4] = oxic, 4 h exposure, mean ± SEM, n = 3–4, read-out: IC50 Oxic

| SMILES | HCR (HCT116/54C cells [1]) | IC50 (HCT116/54C cells [1]; 4 h, read-out: IC50 Anoxic) [mM] | IC50 (HCT116/54C cells [1]; 4 h, read-out: IC50 Oxic) [mM] | IC50 (HCT116/54C cells [1]; read-out: hypoxic IC50) [mM] | IC50 (UT-SCC-74B cells; 4 h, read-out: IC50 Anoxic) [mM] | IC50 (UT-SCC-74B cells; 4 h, read-out: IC50 Oxic) [mM] | HCR (UT-SCC-74B cells) | IC50 (FaDu cells; 4 h, read-out: IC50 Anoxic) [mM] | IC50 (FaDu cells; 4 h, read-out: IC50 Oxic) [mM] | HCR (FaDu cells) | SER at 1 mM (HCT116/54C cells [2]) | IC50 (HCT116/54C cells [1]; [3]) [mM] | IC50 (HCT116/54C cells [1]; [4]) [mM] | IC50 (FaDu cells; [3]) [mM] | IC50 (FaDu cells; [4]) [mM] | IC50 (UT-SCC-74B cells; [3]) [mM] | IC50 (UT-SCC-74B cells; [4]) [mM] | Sensitisation Ratio (HCT116/54C tumours; 2.2 mmol/kg i.v. 5 min prior to 10 Gy radiation, surviving fraction after radiation/surviving fraction after drug + radiation) | enhancement of tumour killing of radiotherapy (RAD vs drug + RAD) (HCT116/54C tumours; 2.2 mmol/kg i.v. + 10 Gy, one-way ANOVA) |
| --- | --- | --- | --- | --- | --- | --- | --- | --- | --- | --- | --- | --- | --- | --- | --- | --- | --- | --- | --- |
| COCC(O)Cn1ccnc1[N+](=O)[O-] (stereo not shown) [Compound 1, misonidazole, reference compound] | >16.8 | 1.5 ± 0.3 | > 25 | 0.5 | 2.1 ± 0.6 | > 25 | >11.9 | 1.3 ± 0.2 | > 20 | >15.4 | 1.46 ± 0.01 | – | – | – | – | – | – | – | – |
| O=[N+]([O-])c1cncn1CCN1CCOCC1 [Compound 3, nimorazole, reference compound] | – | – | – | – | – | – | – | – | – | >1.5 | 1.20 ± 0.01 | > 20 | > 25 | 13.2 ± 3.4 | > 20 | – | – | – | – |
| O=[N+]([O-])c1nccn1CCS(=O)(=O)NCCO [Compound 6] | >7.3 | – | – | – | – | – | >6.6 | – | – | 14.9 | 1.39 ± 0.01 | 2.2 ± 0.04 | > 16 | 1.2 ± 0.2 | 17.8 ± 2.2 | 3 ± 0.6 | > 20 | – | – |
| O=[N+]([O-])c1cncn1CCS(=O)(=O)NCCO [Compound 8] | >2.4 | – | – | – | – | – | >2.0 | – | – | >3.6 | 1.27 ± 0.00 | 9 ± 0.9 | > 22 | 6.6 ± 0.6 | > 24 | 10.9 ± 1.3 | > 22 | – | – |
| O=[N+]([O-])c1cncn1CCS(=O)(=O)NCCOP(=O)(O)O [Compound 12] | – | – | – | – | – | – | – | – | – | – | – | – | – | – | – | – | – | 3.32 | significantly enhanced the tumour killing of radiotherapy |
| COCCNS(=O)(=O)Cn1ccnc1[N+](=O)[O-] [Compound 33] | >51 | – | – | – | – | – | 19.9 | – | – | 46.6 | – | 0.12 ± 0.002 | > 6.2 | 0.09 ± 0.01 | 4 ± 1.2 | 0.19 ± 0.02 | 3.7 ± 0.8 | – | – |
| COCCNS(=O)(=O)CCn1ccnc1[N+](=O)[O-] [Compound 35] | >16 | – | – | – | – | – | – | – | – | 20.4 | – | 0.97 ± 0.16 | > 16 | 0.81 ± 0.12 | 16.5 ± 1.6 | – | – | – | – |
| O=[N+]([O-])c1nccn1CCS(=O)(=O)NCCN1CCOCC1 [Compound 36] | 12.9 | – | – | – | – | – | 7.6 | – | – | 10.6 | 1.57 ± 0.00 | 0.71 ± 0.13 | 9.2 ± 1.1 | 0.69 ± 0.04 | 7.3 ± 0.6 | 1.6 ± 0.3 | 11.9 ± 1.5 | – | – |
| COCCNS(=O)(=O)Cn1cncc1[N+](=O)[O-] [Compound 37] | 2.9 | – | – | – | – | – | – | – | – | 5.7 | – | 4 ± 0.7 | 11.4 ± 1 | 2.1 ± 0.04 | 12 ± 1.9 | – | – | – | – |
| COCCNS(=O)(=O)CCn1cncc1[N+](=O)[O-] [Compound 39] | >1.9 | – | – | – | – | – | – | – | – | >2.6 | – | 13 ± 1.3 | > 25 | 7.2 ± 0.2 | > 19 | – | – | – | – |
| COCCNS(=O)(=O)CCn1c([N+](=O)[O-])cnc1C [Compound 40] | >1.8 | – | – | – | – | – | – | – | – | >2.7 | – | 11 ± 0.4 | > 20 | 8 ± 0.5 | > 22 | – | – | – | – |
| Cc1ncc([N+](=O)[O-])n1CCS(=O)(=O)N1CCN(C)CC1 [Compound 43] | 1.2 | – | – | – | – | – | – | – | – | 1.6 | – | 9.9 ± 0.3 | 11.7 ± 1.3 | 8.6 ± 0.6 | 13.3 ± 2.5 | – | – | – | – |
| Cc1ncc([N+](=O)[O-])n1CCS(=O)(=O)NCCCN1CCOCC1 [Compound 44] | >2.0 | – | – | – | – | – | 1.9 | – | – | >2.0 | – | 10.3 ± 1.5 | > 21 | 7.8 ± 0.7 | > 16 | 7.1 ± 1.5 | 13.2 ± 2 | – | – |
| Cc1ncc([N+](=O)[O-])n1CCS(=O)(=O)NCCN1CCCCC1 [Compound 45] | 5.0 | – | – | – | – | – | – | – | – | 2.8 | – | 2.4 ± 0.4 | 11.8 ± 1.5 | 1.7 ± 0.4 | 4.8 ± 0.3 | – | – | – | – |
| Cc1ncc([N+](=O)[O-])n1CCS(=O)(=O)N1CCC(N(C)C)CC1 [Compound 46] | 8.6 | – | – | – | – | – | 4.4 | – | – | 7.3 | – | 2 ± 0.3 | 16.9 ± 1.4 | 1.3 ± 0.1 | 9.5 ± 2 | 1.9 ± 0.2 | 8.1 ± 0.9 | – | – |
